Species: Rattus norvegicus
Assay: Compound was evaluated for its depolarizing activity in the isolated rat spinal cord and the relative potency was determined
Type: functional

SMILES | Relative potency
O=C(O)C[C@@H]1[C@@H](C(=O)O)NC[C@@H]1c1ccccc1O | 300
O=C(O)C[C@H]1[C@@H](C(=O)O)NC[C@@H]1c1ccccc1O | 2
O=C(O)C[C@H]1[C@@H](C(=O)O)NC[C@H]1c1ccccc1O | 0.5
N[C@@H](CCC(=O)O)C(=O)O [GLUTAMIC ACID] | 1
O=C(O)C[C@@H]1[C@@H](C(=O)O)NC[C@H]1c1ccccc1O | 0.5
C=C(C)[C@H]1CN[C@H](C(=O)O)[C@H]1CC(=O)O [KAINIC ACID] | 150

— ChEMBL document CHEMBL1152058, “Configurational variants of hydroxyphenylkainoid: their potent depolarizing activities in the rat central nervous system” (1992)
